In ChEMBL document CHEMBL3885861, “Open TG-GATES”:

Species on record: Rattus norvegicus
Assay: Open TG-GATES - Regimen: Daily Repeat
Assay type: toxicity, organism-based, Sprague-Dawley
Design: regimen Daily Repeat, gender Male, age 6 weeks
Details: in vivo, po, route gavage; for KIDNEY_L / KIDNEY_R / KIDNEY_TOTAL: tissue Kidney; for ALP / ALT / AST / BUN / CRE / Ca / Cl / DBIL / GLC / IP / K / LDH / Na / PL / RALB / TBIL / TC / TP / gamma-GTP / TG: tissue Plasma
[1] = 45 mg/kg, 72 h, dose level Low, time 3 day
[2] = 45 mg/kg, 72 h, tissue Blood, dose level Low, time 3 day
[3] = 45 mg/kg, […], dose level Low, time 7 day
[4] = 45 mg/kg, […], dose level Low, time 14 day
[5] = 45 mg/kg, […], dose level Low, time 28 day
[6] = 45 mg/kg, […], tissue Blood, dose level Low, time 7 day
[7] = 45 mg/kg, […], tissue Blood, dose level Low, time 14 day
[8] = 45 mg/kg, […], tissue Blood, dose level Low, time 28 day

CC(=O)Oc1ccccc1C(=O)O [ASPIRIN]
TERMINAL_BW [1]: 237.2 g | APTT [2]: 19.4 s | Bas [2]: 0% | Eos [2]: 0.8% | Fbg [2]: 214 mg/dL | Hb [2]: 13.7 g/dL | Ht [2]: 40.3% | Lym [2]: 81% | MCH [2]: 21.4 pg | MCHC [2]: 33.9% | MCV [2]: 62.9 fL | Mono [2]: 2.8% | Neu [2]: 13.6% | Plat [2]: 113.2 x10_4/uL | RBC [2]: 641.2 x10_4/ul | Ret [2]: 5.8% | WBC [2]: 103.1 x10_2/uL | KIDNEY_L [1]: 1.1 g | KIDNEY_R [1]: 1.1 g | KIDNEY_TOTAL [1]: 2.2 g | ALP [1]: 890.4 IU/L | ALT [1]: 45 IU/L | AST [1]: 86.4 IU/L | BUN [1]: 13.8 mg/dL | CRE [1]: 0.4 mg/dL | Ca [1]: 10.7 mg/dL | Cl [1]: 102.2 meq/L | DBIL [1]: 0.09 mg/dL | GLC [1]: 205.2 mg/dL | IP [1]: 6.8 mg/dL | K [1]: 3.8 meq/L | LDH [1]: 315.2 IU/L | Na [1]: 140.4 meq/L | PL [1]: 146.2 mg/dL | RALB [1]: 3.5 g/dL | TBIL [1]: 0.1 mg/dL | TC [1]: 71 mg/dL | TP [1]: 5.7 g/dL | gamma-GTP [1]: 0.6 IU/L | TERMINAL_BW [3]: 270.5 g | TERMINAL_BW [4]: 315.9 g | TERMINAL_BW [5]: 394.7 g | APTT [6]: 22.5 s | Bas [6]: 0% | Eos [6]: 1% | Fbg [6]: 205.8 mg/dL | Hb [6]: 13.5 g/dL | Ht [6]: 39.9% | Lym [6]: 84.2% | MCH [6]: 20.8 pg | MCHC [6]: 33.9% | MCV [6]: 61.4 fL | Mono [6]: 2.2% | Neu [6]: 12.2% | PT [6]: 12.6 s | Plat [6]: 120.9 x10_4/uL | RBC [6]: 650.4 x10_4/ul | Ret [6]: 5.3% | WBC [6]: 120.2 x10_2/uL | APTT [7]: 19.9 s | Bas [7]: 0% | Eos [7]: 1.2% | Fbg [7]: 220.6 mg/dL | Hb [7]: 14.7 g/dL | Ht [7]: 42.3% | Lym [7]: 77.2% | MCH [7]: 20.9 pg | MCHC [7]: 34.9% | MCV [7]: 59.8 fL | Mono [7]: 2% | Neu [7]: 18.2% | Plat [7]: 128.5 x10_4/uL | RBC [7]: 707.4 x10_4/ul | Ret [7]: 3.6% | WBC [7]: 138.1 x10_2/uL | APTT [8]: 20.3 s | Bas [8]: 0% | Eos [8]: 1.4% | Fbg [8]: 207.2 mg/dL | Hb [8]: 15.4 g/dL | Ht [8]: 44.6% | Lym [8]: 80.4% | MCH [8]: 19.2 pg | MCHC [8]: 34.4% | MCV [8]: 55.7 fL | Mono [8]: 2.4% | Neu [8]: 14.2% | Plat [8]: 101 x10_4/uL | RBC [8]: 801 x10_4/ul | Ret [8]: 2% | WBC [8]: 104.5 x10_2/uL | KIDNEY_L [3]: 1.2 g | KIDNEY_R [3]: 1.2 g | KIDNEY_TOTAL [3]: 2.3 g | KIDNEY_L [4]: 1.3 g | KIDNEY_R [4]: 1.3 g | KIDNEY_TOTAL [4]: 2.5 g | KIDNEY_L [5]: 1.5 g | KIDNEY_R [5]: 1.5 g | KIDNEY_TOTAL [5]: 3 g | ALP [3]: 901.6 IU/L | ALT [3]: 27.8 IU/L | AST [3]: 62.2 IU/L | BUN [3]: 16 mg/dL | CRE [3]: 0.4 mg/dL | Ca [3]: 10.6 mg/dL | Cl [3]: 102.6 meq/L | DBIL [3]: 0.096 mg/dL | GLC [3]: 219 mg/dL | IP [3]: 7.3 mg/dL | K [3]: 4.1 meq/L | LDH [3]: 213.4 IU/L | Na [3]: 140.4 meq/L | PL [3]: 140.6 mg/dL | RALB [3]: 3.2 g/dL | TBIL [3]: 0.1 mg/dL | TC [3]: 73.4 mg/dL | TG [3]: 107.4 mg/dL | TP [3]: 5.5 g/dL | gamma-GTP [3]: 0.6 IU/L | ALP [4]: 902.4 IU/L | ALT [4]: 40.6 IU/L | AST [4]: 76 IU/L | BUN [4]: 16 mg/dL | CRE [4]: 0.4 mg/dL | Ca [4]: 10.6 mg/dL | Cl [4]: 102.8 meq/L | DBIL [4]: 0.1 mg/dL | GLC [4]: 189.8 mg/dL | IP [4]: 7.1 mg/dL | K [4]: 4.2 meq/L | LDH [4]: 244 IU/L | Na [4]: 140.8 meq/L | PL [4]: 153 mg/dL | RALB [4]: 3.5 g/dL | TBIL [4]: 0.1 mg/dL | TC [4]: 71.8 mg/dL | TG [4]: 133.6 mg/dL | TP [4]: 5.8 g/dL | gamma-GTP [4]: 0.6 IU/L | ALP [5]: 733.8 IU/L | ALT [5]: 33 IU/L | AST [5]: 67.2 IU/L | BUN [5]: 17 mg/dL | CRE [5]: 0.5 mg/dL | Ca [5]: 10.3 mg/dL | Cl [5]: 102.6 meq/L | DBIL [5]: 0.094 mg/dL | GLC [5]: 232.8 mg/dL | IP [5]: 6.7 mg/dL | K [5]: 3.9 meq/L | LDH [5]: 186.2 IU/L | Na [5]: 141.2 meq/L | PL [5]: 143.2 mg/dL | RALB [5]: 3.4 g/dL | TBIL [5]: 0.2 mg/dL | TC [5]: 68.6 mg/dL | TG [5]: 125 mg/dL | TP [5]: 6.1 g/dL | gamma-GTP [5]: 0.6 IU/L | TERMINAL_BW (150 mg/kg, 72 h, dose level Middle, time 3 day): 239.9 g
